This is an account of results in patent publication US4794115A, “Method of treating hyperlipemia” (Terumo Corporation, priority 1985, dated 1988).

The test system of the assay is Wistar-King male rats. Nature of the assay: Serum total cholesterol and triglycerides in cholesterol/cholic acid/corn oil-loaded rats after 7 days oral administration. The assay is classed as in vivo. Particulars: once a day for 7 days, 4 hours after last administration, mean of 6 rats; for Serum lipid level, total cholesterol: control 210.0; for Serum lipid level, triglyceride: control 621.7. On the procedure: Wistar-King male rats weighing 170 g are orally administered with 5% acacia gum suspension of the compound obtained in Example 1 or 2. Thirty minutes thereafter, a mixture of 10% cholesterol, 1% cholic acid and corn oil is orally administered at a dose of 10 ml/kg.
The above-described administration is made once a day for consecutive 7 days, and 4 hours after the last administration blood is drawn from the abdominal large artery of the rats under ether anesthesia. The blood is centrifuged at 1630×g at 4° C. for 10 min. to isolate serum. Measurements were made on serum levels of total cholesterol and triglycerides by means of serum lipid reagents, V-cholestase (Nissui, trade name for the total cholesterol) and V-Triglase (Nissui, trade name for the triglycerides). Results are shown in Table 1, in which mean values for a group of 6 animals are shown.

For `O=C(O)c1cccnc1` [Nicotinic acid, reference compound], where the note is “dose 2.4 mM/kg”, the “Serum lipid level, total cholesterol” value came out at 195.4 mg/dL and the “Serum lipid level, triglyceride” value was 312.2 mg/dL.

With `CC/C=C\C/C=C\C/C=C\CCCCCCCC(=O)NCCOC(=O)c1cccnc1` [Example 1, N-(9,12,15-octadecatrienoyl)-2-aminoethyl nicotinate], the “Serum lipid level, total cholesterol” value came to 198.9 mg/dL (dose 1.2 mM/kg) and 146.6 mg/dL (dose 2.4 mM/kg). Further, the “Serum lipid level, triglyceride” value was 350.1 mg/dL (dose 1.2 mM/kg) and 258.4 mg/dL (dose 2.4 mM/kg).

`CC/C=C\C/C=C\C/C=C\C/C=C\C/C=C\CCCC(=O)NCCOC(=O)c1cccnc1` [Example 2, N-(5,8,11,14,17-eicosapentaenoyl)-2-aminoethyl nicotinate]: where the note is “dose 1.2 mM/kg”, the “Serum lipid level, total cholesterol” value turned out to be 194.8 mg/dL and the “Serum lipid level, triglyceride” value worked out at 296.4 mg/dL. Also, for the setting “dose 2.4 mM/kg”, the “Serum lipid level, total cholesterol” value worked out at 130.4 mg/dL and the “Serum lipid level, triglyceride” value was 202.8 mg/dL.
